Reference: patent publication US11208418B2, “Nitrogenous tricyclic compounds and uses thereof in medicine” (SUNSHINE LAKE PHARMA CO., LTD., priority 2018, dated 2021)

Key:
[1] = Liver microsome stability test; assay type: in vitro ADME; settings: rat liver microsomes, compound 1 μM, 0.5 mg/mL microsome, 37° C.; for half-life at 1 μM: pH 7.4
Protocol: The solution of compound in DMSO (10 mM) was diluted with a mixed solvent of acetonitrile and water (1:1, v/v) to get a 100 μM compound solution, and then the 100 μM compound solution was diluted with potassium phosphate buffer (0.1 M, pH 7.4) to get a 3 μM compound solution. NADPH was formulated with potassium phosphate buffer (0.1 M, pH 7.4) to NADPH solution (6 mM). Rat liver microsome was formulated with potassium phosphate buffer (0.1 M, pH 7.4) to liver microsome solution (1.5 mg/mL).
The total volume of incubation mixture was 45 μL, including 15 μL rat liver microsome solution (1.5 mg/mL), 15 μL compound solution (3 μM) and 15 μL NADPH solution (6 mM), the final concentration of liver microsome in the incubation mixture was 0.5 mg/mL, the compound concentration was 1 μM, the NADPH concentration was 2 mM.
The incubation mixture was incubated at 37° C. The reaction was terminated by adding 120 μL acetonitrile solution containing internal standard at different time points (20 min and 60 min), and centrifuged at 4000 rpm for 5 min. The supernatant was took out and analyzed by LC-MS/MS.
At the same time, a parallel incubation test was set up, using inactivated rat liver microsomes as negative control and verapamil at the same concentration as positive control. The reaction was incubated at 37° C. and terminated at different time points (20 minutes and 60 minutes).
The ratio of sample peak area to internal standard peak area was obtained by analyzing through LC/MS/MS, the drug content of the negative control was as 100%, the drug relative content at each time point was calculated. The rate constant was obtained by plotting based on “Log[compound concentration]” to “incubating time”, and then the half-life T1/2 and intrinsic clearance CLHep of the compound were calculated.

[2] = target: farnesoid X receptor protein (Homo sapiens (Human), UniProt Q96RI1); assay: Coactivation of TR-FRET farnesoid X receptor protein (Invitrogen PV4833 Kit); assay type: biochemical; settings: TR-FRET coactivator recruitment, Fluorescein-SRC2-2, 1 hour at room temperature
Chain of farnesoid X receptor protein (Q96RI1 262-486, other chains not shown): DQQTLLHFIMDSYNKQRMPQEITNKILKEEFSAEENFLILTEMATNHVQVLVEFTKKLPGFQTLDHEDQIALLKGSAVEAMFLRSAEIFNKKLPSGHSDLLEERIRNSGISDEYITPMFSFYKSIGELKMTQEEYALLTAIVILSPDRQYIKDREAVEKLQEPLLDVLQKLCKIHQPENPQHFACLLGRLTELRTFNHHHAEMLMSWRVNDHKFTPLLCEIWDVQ
Protocol: Purchasing Invitrogen PV4833 Kit.
Step 1, the compound was weighed and dissolved in 100% DMSO, the highest concentration is 3000 μM, and then diluted with DMSO by 3-fold serial dilution to get 10 concentrations.
Step 2, the above formulated compound solutions were diluted 100 times with the buffer provided in the kit, which were mixed respectively and 10 μL of which were added into a 384 well plate in turn.
Step 3, FXR recombinant nucleo receptor protein was diluted with a buffer to formulate 4× concentration, and 5 μL of which was added into the above 384 well plate containing the compound.
Step 4, Fluorescein-SRC2-2 and Tb anti-GST antibody were diluted with a buffer respectively, both concentration are 4×, after the two reagents were mixed together, 10 μL of which was added into the 384 well plate described in step 3.
At last, the solution in the 384 well plate was blend by centrifugation, and then incubated at room temperature for 1 hour.

[3] = Pharmacokinetic test in SD rats; assay type: in vivo; settings: male, rat, plasma
Protocol: Experimental animals: 6 healthy male adult SD rats (purchased from Hunan SJA Laboratory Animal Co.; Ltd) were randomized into 2 groups, 3 in each group, the groups were administered by intravenous injection and gavage respectively.
Preparation of drugs: an amount of the compound was scaled, and the target concentrate of the compound was prepared by addition of 5% DMSO, 10% Kolliphor HS15 and 85% saline (0.9%).
Administration and samples collection: the animals were fasted 12 hours before administration and provided again 3 hours post-administration, SD rats were administrated by intravenous injection from hindlimb peduncular veins (1 mg/kg) and by gavage (PO, 5 mg/kg). 200-400 μL of blood was collected at different time points 0, 0.083, 0.25, 0.5, 1, 2, 4, 6, 8, 24 h from rats tail vein. Blood collection was 200-400 μL per time point. The blood collected at each time point was placed in K2EDTA anticoagulant tube, and stored at a couveuse with ice bags. All the samples in 15 min were centrifuged at 4600 r/min at 4° C. for 5 min, plasma samples were obtained, the concentrates of compound in the plasma samples were determined by LC/MS/MS, the pharmacokinetic parameters were calculated based on the drug concentration-time curve.

| half-life at 1 μM [1] | ClHep [1] | Compound | EC50 [2] | AUC(0-inf) ([3]; iv, 1 mg/kg) | AUC(0-t) ([3]; iv, 1 mg/kg) | Cmax ([3]; iv, 1 mg/kg) | MRT inf ([3]; iv, 1 mg/kg) | Tmax ([3]; iv, 1 mg/kg) | clearance ([3]; iv, 1 mg/kg) | half-life ([3]; iv, 1 mg/kg) | Vd ([3]; iv, 1 mg/kg, read-out: Vss) | bioavailability ([3]; po 5 mg/kg versus iv 1 mg/kg) | AUC(0-inf) ([3]; po, 5 mg/kg) | AUC(0-t) ([3]; po, 5 mg/kg) | Cmax ([3]; po, 5 mg/kg) | MRT inf ([3]; po, 5 mg/kg) | Tmax ([3]; po, 5 mg/kg) | half-life ([3]; po, 5 mg/kg) |
| --- | --- | --- | --- | --- | --- | --- | --- | --- | --- | --- | --- | --- | --- | --- | --- | --- | --- | --- |
| 28.8 min | 86.33 mL/min/kg | O=C(O)c1ccc2c(c1)Oc1ccc(OCc3c(-c4ccccc4OC(F)(F)F)noc3C3CC3)nc1CC2 [Example 2, 2-((5-cyclopropyl-3-(2-(trifluoromethoxy)phenyl)isoxazol-4-yl)methoxy)-10,11-dihydrobenzo[6,7]oxepino[3,2-b]pyridine-7-carboxylic acid] | – | – | – | – | – | – | – | – | – | – | – | – | – | – | – | – |
| 25 min | 99.23 mL/min/kg | O=C(O)c1ccc2c(c1)Oc1ccc(OCc3c(-c4ccc(Cl)cc4Cl)noc3C3CC3)nc1C1(CC1)C2 [Example 5, 2-((5-cyclopropyl-3-(2,4-dichlorophenyl)isoxazol-4-yl)methoxy)-10H-spiro[benzo[6,7]oxepino[3,2-b]pyridine-11,1′-cyclopropane]-7-carboxylic acid] | – | – | – | – | – | – | – | – | – | – | – | – | – | – | – | – |

| Compound | half-life at 1 μM [1] | ClHep [1] | EC50 [2] | AUC(0-inf) ([3]; iv, 1 mg/kg) | AUC(0-t) ([3]; iv, 1 mg/kg) | Cmax ([3]; iv, 1 mg/kg) | MRT inf ([3]; iv, 1 mg/kg) | Tmax ([3]; iv, 1 mg/kg) | clearance ([3]; iv, 1 mg/kg) | half-life ([3]; iv, 1 mg/kg) | Vd ([3]; iv, 1 mg/kg, read-out: Vss) | bioavailability ([3]; po 5 mg/kg versus iv 1 mg/kg) | AUC(0-inf) ([3]; po, 5 mg/kg) | AUC(0-t) ([3]; po, 5 mg/kg) | Cmax ([3]; po, 5 mg/kg) | MRT inf ([3]; po, 5 mg/kg) | Tmax ([3]; po, 5 mg/kg) | half-life ([3]; po, 5 mg/kg) |
| --- | --- | --- | --- | --- | --- | --- | --- | --- | --- | --- | --- | --- | --- | --- | --- | --- | --- | --- |
| O=C(O)c1ccc2c(c1)Oc1ccc(OCc3c(-c4ccccc4OC(F)(F)F)noc3C3CC3)nc1C1(CC1)C2 [Example 3, 2-((5-cyclopropyl-3-(2-(trifluoromethoxy)phenyl)isoxazol-4-yl)methoxy)-10H-Spiro[benzo[6,7]oxepino[3,2-b]pyridine-11,1′-cyclopropane]-7-carboxylic acid] | 26.8 min | 92.61 mL/min/kg | 8.6 nM | 1740 ng·h/mL | 1730 ng·h/mL | 1660 ng/mL | 60.6 min | 4.98 min | 9.62 mL/min/kg | 46.4 min | 0.584 L/kg | 71.3% | 6210 ng·h/mL | 6170 ng·h/mL | 2320 ng/mL | 103 min | 60 min | 53.5 min |
